# According to patent US20260109707A1, “HETEROBIFUNCTIONAL COMPOUNDS AND METHODS OF TREATING DISEASE” (Halda Therapeutics OpCo. Inc., priority 2022, published 2026):
# Like-named read-outs stand apart in the source and are kept apart here.
# Experiments:
# [1] = test system: T-Rex 293 cell line SC3 cells having increased expression of androgen receptor protein due to exposure to doxycycline; assay: Cellular growth inhibition assay, T-Rex 293 SC3 cells with doxycycline (CellTiter-Glo, 72 hours); type: cell-based; settings: T-Rex 293 SC3 cells with increased androgen receptor expression due to doxycycline (10 ng/mL)
# Procedure, shortened: (§1)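 Doxycycline (10 ng/mL) was either included or omitted to toggle wild-type androgen receptor expression in SC3 cells, a T-Rex 293 clone, grown in stripped-serum, phenol red-free medium. After 72 hours with compound, viable cells were quantified by CellTiter-Glo 2.0.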
# [2] = test system: T-Rex 293 cell line SC3 cells lacking increased expression of androgen receptor protein; assay: Cellular growth inhibition assay, T-Rex 293 SC3 cells without doxycycline (CellTiter-Glo, 72 hours); type: cell-based; settings: T-Rex 293 cell line SC3 cells not exposed to doxycycline (lacking increased androgen receptor expression)
# Procedure, shortened: as §1
# [3] = test system: VCaP cells; assay: Cellular growth inhibition assay for VCaP cells (CellTiter-Glo, 72 hours); type: cell-based, human
# Procedure, shortened: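 Luminescent viability signal after 72 h of compound exposure gave GI50 values by four-parameter nonlinear regression. Compounds were added in 0.5% DMSO to cells plated 24 h earlier at 5000/well in DMEM containing 10% FBS.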
SMILES,GI50 [1],GI50 [2],GI50 [3],GI50 ([1]; 72 h),GI50 ([2]; 72 h),"GI50 ([3]; Homo sapiens, VCaP, 72 h)"
COC[C@@H]1N=C(c2ccc(C3CCC4(CCN(c5ccc(C(=O)N[C@H]6CC[C@H](Oc7ccc(C#N)c(Cl)c7)CC6)nn5)CC4)C3)cc2)c2c(sc(C)c2C)-n2c(C)nnc21 (stereo partly drawn) [I-659],< 500 nM,< 500 nM,< 500 nM,–,–,–
COCC[C@@H]1N=C(c2ccc(CC3CC4(CCN(c5ccc(C(=O)N[C@H]6CC[C@H](Oc7ccc(C#N)c(Cl)c7)CC6)nn5)CC4)C3)cc2)c2c(sc(C)c2C)-n2c(C)nnc21 [I-660],–,–,–,< 500 nM,500 to 1500 nM,< 500 nM
COCC[C@@H]1N=C(c2ccc(OC3CC4(CCCN(c5ccc(C(=O)N[C@H]6CC[C@H](Oc7ccc(C#N)c(Cl)c7)CC6)nn5)C4)C3)cc2)c2c(sc(C)c2C)-n2c(C)nnc21 (stereo partly drawn) [I-662],–,–,–,< 500 nM,500 to 1500 nM,< 500 nM
COCC[C@@H]1N=C(c2ccc(OC3CC4(CCCN(c5ccc(C(=O)N[C@H]6CC[C@H](Oc7ccc(C#N)c(Cl)c7)CC6)nn5)C4)C3)cc2)c2c(sc(C)c2C)-n2c(C)nnc21 (stereo partly drawn) [I-663],< 500 nM,< 500 nM,< 500 nM,–,–,–
Cc1sc2c(c1C)C(c1ccc(N3C[C@@H]4CN(c5ccc(C(=O)N[C@H]6CC[C@H](Oc7ccc(C#N)c(Cl)c7)CC6)nn5)C[C@H]4C3)cc1)=NC1(CC1)c1nnc(C)n1-2 [I-664],–,–,–,< 500 nM,< 500 nM,< 500 nM
Cc1sc2c(c1C)C(c1ccc(CC3CCC4(CCCN(c5ccc(C(=O)N[C@H]6CC[C@H](Oc7ccc(C#N)c(Cl)c7)CC6)nn5)C4)C3)nc1)=N[C@@H](C)c1nnc(C)n1-2 (stereo partly drawn) [I-665],–,–,–,< 500 nM,> 3000 nM,< 500 nM
Cc1sc2c(c1C)C(c1ccc(CC3CCC4(CCCN(c5ccc(C(=O)N[C@H]6CC[C@H](Oc7ccc(C#N)c(Cl)c7)CC6)nn5)C4)C3)nc1)=N[C@@H](C)c1nnc(C)n1-2 (stereo partly drawn) [I-666],< 500 nM,> 3000 nM,< 500 nM,–,–,–
Cc1sc2c(c1C)C(c1ccc(OCC3CCC4(C3)CN(c3ccc(C(=O)N[C@H]5CC[C@H](Oc6ccc(C#N)c(Cl)c6)CC5)nn3)CCO4)cc1)=N[C@@H](C)c1nnc(C)n1-2 (stereo partly drawn) [I-667],–,< 500 nM,< 500 nM,< 500 nM,–,–
Cc1sc2c(c1C)C(c1ccc(OCC3CCC4(C3)CN(c3ccc(C(=O)N[C@H]5CC[C@H](Oc6ccc(C#N)c(Cl)c6)CC5)nn3)CCO4)cc1)=N[C@@H](C)c1nnc(C)n1-2 (stereo partly drawn) [I-668],< 500 nM,< 500 nM,< 500 nM,–,–,–
Cc1sc2c(c1C)C(c1ccc(CCCC3CCCN(c4ccc(C(=O)N[C@H]5CC[C@H](Oc6ccc(C#N)c(Cl)c6)CC5)nn4)CC3)cc1)=N[C@@H](C)c1nnc(C)n1-2 (stereo partly drawn) [I-669],–,> 3000 nM,–,< 500 nM,–,< 500 nM
Cc1sc2c(c1C)C(c1ccc(CCCC3CCCN(c4ccc(C(=O)N[C@H]5CC[C@H](Oc6ccc(C#N)c(Cl)c6)CC5)nn4)CC3)cc1)=N[C@@H](C)c1nnc(C)n1-2 (stereo partly drawn) [I-670],< 500 nM,< 500 nM,< 500 nM,–,–,–
Cc1sc2c(c1C)C(c1ccc(CCCC3CCCN(c4ccc(C(=O)N[C@H]5CC[C@H](Oc6ccc(C#N)c(Cl)c6)CC5)nn4)CC3)nc1)=N[C@@H](C)c1nnc(C)n1-2 (stereo partly drawn) [I-671],–,–,–,< 500 nM,< 500 nM,< 500 nM
Cc1sc2c(c1C)C(c1ccc(CCCC3CCCN(c4ccc(C(=O)N[C@H]5CC[C@H](Oc6ccc(C#N)c(Cl)c6)CC5)nn4)CC3)nc1)=N[C@@H](C)c1nnc(C)n1-2 (stereo partly drawn) [I-672],< 500 nM,< 500 nM,< 500 nM,–,–,–
Cc1sc2c(c1C)C(c1ccc(C3CCC4(CCCN(c5ccc(C(=O)N[C@H]6CC[C@H](Oc7ccc(C#N)c(Cl)c7)CC6)nn5)C4)CC3)cc1)=N[C@@H](C)c1nnc(C)n1-2 (stereo partly drawn) [I-673],–,–,–,< 500 nM,> 3000 nM,< 500 nM
Cc1sc2c(c1C)C(c1ccc(C3CCC4(CCCN(c5ccc(C(=O)N[C@H]6CC[C@H](Oc7ccc(C#N)c(Cl)c7)CC6)nn5)C4)CC3)cc1)=N[C@@H](C)c1nnc(C)n1-2 (stereo partly drawn) [I-674],< 500 nM,> 3000 nM,< 500 nM,–,–,–
Cc1sc2c(c1C)C(c1ccc(N3C[C@@]4(F)CN(c5ccc(C(=O)N[C@H]6CC[C@H](Oc7ccc(C#N)c(Cl)c7)CC6)nn5)C[C@@]4(F)C3)cc1)=N[C@@H](C)c1nnc(C)n1-2 [I-675],–,–,–,< 500 nM,< 500 nM,< 500 nM

SMILES,GI50 [1],GI50 [2],GI50 [3],GI50 ([1]; 72 h),GI50 ([2]; 72 h),"GI50 ([3]; Homo sapiens, VCaP, 72 h)"
Cc1sc2c(c1C)C(c1ccc(N3C[C@@H]4CN(c5ccc(C(=O)N[C@H]6CC[C@H](Oc7ccc(C#N)c(Cl)c7)CC6)nn5)C[C@@H]4C3)cc1F)=N[C@@H](C)c1nnc(C)n1-2 [I-676],–,–,–,< 500 nM,< 500 nM,< 500 nM
Cc1sc2c(c1C)C(c1ccc(C/C=C/C3CN(c4ccc(C(=O)N[C@H]5CC[C@H](Oc6ccc(C#N)c(Cl)c6)CC5)nn4)C3)cc1)=N[C@@H](Cc1ncco1)c1nnc(C)n1-2 [I-678],–,–,–,< 500 nM,> 3000 nM,> 3000 nM
Cc1sc2c(c1C)C(c1cccc(OC3CCN(c4ccc(C(=O)N[C@H]5CC[C@H](Oc6ccc(C#N)c(Cl)c6)CC5)nn4)CC3)c1)=N[C@@H](C)c1nnc(C)n1-2 [I-680],–,–,–,< 500 nM,> 3000 nM,< 500 nM
Cc1sc2c(c1C)C(c1cccc(OCC3CCN(c4ccc(C(=O)N[C@H]5CC[C@H](Oc6ccc(C#N)c(Cl)c6)CC5)nn4)CC3)c1)=N[C@@H](C)c1nnc(C)n1-2 [I-681],–,–,–,> 3000 nM,> 3000 nM,< 500 nM
Cc1sc2c(c1C)C(c1cccc(N3CCC4(CCN(c5ccc(C(=O)N[C@H]6CC[C@H](Oc7ccc(C#N)c(Cl)c7)CC6)nn5)C4)C3)c1)=N[C@@H](C)c1nnc(C)n1-2 (stereo partly drawn) [I-682],–,500 to 1500 nM,–,< 500 nM,–,500 to 1500 nM
Cc1sc2c(c1C)C(c1cccc(N3CC4(CCN(c5ccc(C(=O)N[C@H]6CC[C@H](Oc7ccc(C#N)c(Cl)c7)CC6)nn5)CC4)C3)c1)=N[C@@H](C)c1nnc(C)n1-2 [I-683],–,–,–,> 3000 nM,> 3000 nM,> 3000 nM
Cc1sc2c(c1C)C(c1cccc(CC3CC4(CCN(c5ccc(C(=O)N[C@H]6CC[C@H](Oc7ccc(C#N)c(Cl)c7)CC6)nn5)CC4)C3)c1)=N[C@@H](C)c1nnc(C)n1-2 [I-684],–,–,–,< 500 nM,> 3000 nM,500 to 1500 nM
Cc1sc2c(c1C)C(c1cccc(N3CCC4(CC3)CCN(c3ccc(C(=O)N[C@H]5CC[C@H](Oc6ccc(C#N)c(Cl)c6)CC5)nn3)C4)c1)=N[C@@H](C)c1nnc(C)n1-2 [I-685],–,–,–,< 500 nM,500 to 1500 nM,< 500 nM
Cc1sc2c(c1C)C(c1cccc(OC3CC4(CCCN(c5ccc(C(=O)N[C@H]6CC[C@H](Oc7ccc(C#N)c(Cl)c7)CC6)nn5)C4)C3)c1)=N[C@@H](C)c1nnc(C)n1-2 (stereo partly drawn) [I-686],–,> 3000 nM,–,< 500 nM,–,< 500 nM
Cc1sc2c(c1C)C(c1cccc(N3CCC4(CCCN(c5ccc(C(=O)N[C@H]6CC[C@H](Oc7ccc(C#N)c(Cl)c7)CC6)nn5)C4)CC3)c1)=N[C@@H](C)c1nnc(C)n1-2 [I-687],–,–,–,< 500 nM,> 3000 nM,< 500 nM
Cc1sc2c(c1C)C(c1cccc(CN3CCC4(CC3)CCN(c3ccc(C(=O)N[C@H]5CC[C@H](Oc6ccc(C#N)c(Cl)c6)CC5)nn3)C4)c1)=N[C@@H](C)c1nnc(C)n1-2 [I-688],–,–,–,< 500 nM,500 to 1500 nM,< 500 nM
Cc1sc2c(c1C)C(c1ccccc1OCCC1CCN(c3ccc(C(=O)N[C@H]4CC[C@H](Oc5ccc(C#N)c(Cl)c5)CC4)nn3)CC1)=N[C@@H](C)c1nnc(C)n1-2 [I-689],–,–,–,> 3000 nM,> 3000 nM,> 3000 nM
Cc1sc2c(c1C)C(c1ccccc1CC1CC3(CCN(c4ccc(C(=O)NC5CCC(Oc6ccc(C#N)c(Cl)c6)CC5)nn4)CC3)C1)=N[C@@H](C)c1nnc(C)n1-2 (stereo partly drawn) [I-690],–,–,–,> 3000 nM,> 3000 nM,< 500 nM
Cc1sc2c(c1C)C(c1ccc(C3CCC4(CCN(c5ccc(C(=O)N[C@H]6CC[C@H](Oc7ccc(C#N)c(Cl)c7)CC6)nn5)CC4)C3)cn1)=NC1(CC1)c1nnc(C)n1-2 (stereo partly drawn) [I-691],–,–,–,< 500 nM,> 3000 nM,< 500 nM
COC[C@@H]1N=C(c2ccc(CC3CC4(CCN(c5ccc(C(=O)N[C@H]6CC[C@H](Oc7ccc(C#N)c(Cl)c7)CC6)nn5)CC4)C3)cc2)c2c(sc(C)c2C)-n2c(C)nnc21 [I-692],–,–,–,< 500 nM,< 500 nM,< 500 nM
